Test results taken from paper PMC6662714, “High-throughput identification of peptide agonists against GPCRs by co-culture of mammalian reporter cells and peptide-secreting yeast cells using droplet microfluidics” (Scientific Reports, 2019).

How the values were obtained:
human GLP1R (hGLP1R) [1] = test: Functional cell-based assay, adherent hGLP1R/NLuc-293 reporter cells (NanoLuc luminescence); conditions: DMEM, 37 °C, 12 h
Experimental: (§1) To construct a reporter cell line that constitutively produces human GLP1R (hGLP1R) and inducibily secretes NanoLuc in response to the activation of hGLP1R, pIRES-hGLP1R, and pCRE-NLuc[13], were co-transfected in HEK293 cells (European Collection of Cell Culture, Salisbury, UK) using Xfect™ (Clontech Laboratries, Inc., Mountain View, CA, USA). The transfected cells were cultured in Dulbecco’s Modified Eagle Medium (DMEM) (Nacalai Tesque, Kyoto, Japan) containing 10% FBS (GE Healthcare, Little Chalfont, UK), 1% penicillin-streptomycin (Sigma-Aldrich, St. Louis, MO, USA), 400 µg/mL G418 (Nacalai Tesque), and 0.1 µg/mL puromycin (Wako Pure Chemical Industries, Osaka, Japan). […]
To perform a functional assay using the adherent hGLP1R/NLuc-293 cell line, hGLP1R/NLuc-293 cells were seeded at 5 × 10^3 cells/100 µL in a 96-well plate (Thermo Fisher Scientific) and cultured at 37 °C for 24 h. […] Afterwards, 50 µL luciferase substrate (Nano-Glo™ Luciferase Assay System, Promega, Fitchburg, WI, USA) was added, and luminescence intensity was measured using a Fluoroskan Ascent™ Microplate Fluorometer (Thermo Fisher Scientific).
To verify the activities of the identified Ex4 variants, we prepared variant peptides using E. coli as follows. […] The calibration curve used for quantification was obtained with standard FLAG peptides (Wako Pure Chemical Industries).

human GLP1R (hGLP1R) [2] = test: Functional cell-based assay, adherent hGLP1R/LacZ-293 reporter cells (LacZ fluorescence); conditions: DMEM, 50 µM CMFDG, 37 °C, 12 h
Experimental: as §1, with “Japan). The reporter cells were selected to establish a stable cell line harboring GLP1R and secretory NanoLuc genes (hGLP1R/NLuc-293)[13].” for “Japan).”
To perform a functional assay using the adherent hGLP1R/LacZ-293 cell line, hGLP1R/LacZ-293 cells were seeded at 5 × 10^3 cells/100 µL in a 96-well plate (Thermo Fisher Scientific) and cultured at 37 °C for 24 h. […] After 12 h incubation at 37 °C, fluorescence intensity was measured using Fluoroskan Ascent™ Microplate Fluorometer.

human GLP1R (hGLP1R) [3] = test: Functional cell-based assay, floating hGLP1R/LacZ-293 cells; conditions: 30 nM authentic Ex4, floating cells 5 × 10^3 cells/50 µL, RPMI-1640, 50 µM CMFDG, 37 °C, 12 h; n = 3; Fig. 3a
Experimental: as §1, with “Japan). The reporter cells were selected to establish a stable cell line harboring GLP1R and secretory NanoLuc genes (hGLP1R/NLuc-293)[13]. To construct a reporter cell line that secretes LacZ in response to the activation of hGLP1R, pIRES-hGLP1R[13], and pCRE-LacZ were co-transfected in HEK293 cells, and a reporter cell line, hGLP1R/LacZ-293, was selected using a medium containing G418 and puromycin.” for “Japan).”
An assay using floating hGLP1R/LacZ-293 was carried out using the following procedure. […] Immediately after the modification, the solution was placed in a 96-well plate and incubated at 37 °C for 12 h, and fluorescence intensity was measured.

human GLP1R (hGLP1R) [4] = test: Co-culture of floating hGLP1R/LacZ-293 and ligand-secreting yeast cells; assay type: cell-based; conditions: co-culture with yeast cells secreting Ex4 (4.5 × 10^5 cells/50 µL) vs WT yeast, RPMI-1640, 50 µM CMFDG, 37 °C, 12 h, n = 3, Fig. 3b
Excerpt: Saccharomyces cerevisiae BY4742 [MATα, his3Δ1, leu2Δ0, lys2Δ0, ura3Δ0] (GE Healthcare) was used for the secretion of a hGLP1R agonist, Exendin-4 (Ex4, produced by the Gila monster[31]) and randomized Ex4 variants. To construct an Ex4-secretory yeast, pULS-Ex4[13] was transformed into the BY4742 strain using the Frozen-EZ Yeast Transformation-II Kit (Zymo Research, Orange, CA, USA). Yeast cells secreting randomized Ex4 variants were constructed using gap repair cloning[34] as follows. pULS plasmid[13] was digested with EcoRI and KpnI to obtain a linear vector fragment. Insert DNA fragments encoding Ex4 genes whose two N-terminal amino acids were randomized were PCR-amplified from pULS-Ex4 using the following primers: 5′-[…]-3′ and 5′-[…]-3′. The BY4742 strains were transformed using the linear vector fragments (500 ng) and the randomized insert fragments (250 ng) for gap repair cloning. […]
Co-culture of floating hGLP1R/LacZ-293 and ligand-secreting yeast cells was carried out using the following procedure. […] Immediately after the modification, the solution was incubated in a 96-well plate at 37 °C for 12 h, and fluorescence intensity was measured.

human GLP1R (hGLP1R) [5] = test: Functional cell-based assay in droplets (droplet microfluidics), hGLP1R/LacZ-293; conditions: 6 h, Fig. 4b; for fluorescence intensity of droplets: DMEM, 50 µM CMFDG, 30 °C, at least 70 droplets
Excerpt: A single-inlet microfluidic device was designed according to previous reports[39],[40] (Fig. S1). In brief, polydimethylsiloxane (PDMS, Sylgard 184, Dow Corning Corp, Midland, MI, USA) and its cross-linker were mixed at a ratio of 10:1 (w/w), degassed, poured onto a master mold, and cured. The cured PDMS was peeled from the mold and punched with 0.75 mm biopsy punch (World Precision Instruments, Sarasota, FL, USA). The PDMS slab was bonded to a glass slide by plasma treatment (Plasma Cleaner PDG-32G; Harrick Scientific, Pleasantville, NY, USA), and baked for at least 30 min at 70 °C. The microfluidics device, an air compressor, Mitos P-Pump Basic (Dolomite, Charleston, MA, USA) were connected, and the pressure was set to be about 150 mbar for aqueous phase and about 300 mbar for oil phase. To generate droplets, cell suspension and a carrier phase (FC40 containing 5% (v/v) of the surfactant Pico-Surf1, Dolomite), were pumped into the cross-junction.
As a proof-of-principle experiment, hGLP1R/LacZ-293 was suspended at 5.0 × 10^6 cells/mL in the following media: DMEM, DMEM containing authentic Ex4, DMEM containing WT S. cerevisiae (Yeast-WT), or DMEM containing Ex4-secreting S. cerevisiae (Yeast-Ex4). The concentration of yeast cells was set to be 9.1 × 10^6 cells/mL. CMFDG was added in the media to realize a concentration of 50 µM. After encapsulation, the droplets were incubated at 30 °C for 6 h. Fluorescence intensity of each droplet was calculated by image analysis under a confocal laser scanning fluorescence microscope.

GLP1R = conditions: cited from earlier work
Excerpt: To investigate whether the activity of the peptides was not influenced by the post-translational modifications by yeast or differences in secretion efficiencies, WT Ex4 and Ex4 variants fused with an N-terminal FLAG sequence were produced using Escherichia coli. The peptides were purified using anti-FLAG resin, and reacted with enterokinase, which cleaves the peptides after the FLAG sequence to expose free N-terminal of Ex4 peptides. We added the purified WT Ex4 produced by E. coli with or without enterokinase reactions to the hGLP1R/NLuc-293 cells, and observed a significant increase in lumin ...

[6] = 30 nM authentic Ex4 vs 0 nM, mean ± SD (n = 3), two-tailed Student's t-test, Fig. 2a
[7] = culture supernatants of Ex4-secretory yeast (yeast-Ex4) vs WT yeast, n = 3, Fig. 2b

exendin-4 [Ex4]
reporter signal (NanoLuc luminescence) (human GLP1R (hGLP1R) [1]; [6]): significant reporter signals in both lines
reporter signal (NanoLuc luminescence) (human GLP1R (hGLP1R) [1]; [7]): significant reporter signals in both lines
reporter signal (LacZ fluorescence) (human GLP1R (hGLP1R) [2]; [6]): significant reporter signals in both lines
reporter signal (LacZ fluorescence) (human GLP1R (hGLP1R) [2]; [7]): significant reporter signals in both lines
fluorescence (LacZ reporter) (human GLP1R (hGLP1R) [3]): significant increase in fluorescence
fluorescence (LacZ reporter) (human GLP1R (hGLP1R) [4]): significant increase in fluorescence
overlap of box plots of droplet fluorescence, "Ex4" vs "no ligand" (human GLP1R (hGLP1R) [5]; 30 nM authentic Ex4, 30 °C): partially overlapped
fluorescence intensity of droplets (human GLP1R (hGLP1R) [5]; 30 nM authentic Ex4 vs no ligand, two-tailed Student's t-test): significant increases in fluorescence intensity
fluorescence intensity of droplets (human GLP1R (hGLP1R) [5]; yeast cells secreting Ex4 (9.1 × 10^6 cells/mL) vs Yeast-WT): significant increases in fluorescence intensity
agonist strength at GLP1R (GLP1R): very strong agonist
